Assay results published in patent US12268670B2, “Combination of small molecule CD-47 inhibitors with other anti-cancer agents” (Aurigene Oncology Limited, priority 2018, dated 2025).
Marks after values point to notes of the source that are not given here.

Tests used:
[1] = tested on: H929 (multiple myeloma cell line) cells; experiment: Human macrophage phagocytosis assay in combination with bortezomib; type: cell-based; details: H929 cells treated with 10 nM bortezomib for 48 hrs, compared with compound alone; FIG. 2
Procedure: In vitro phagocytosis assay was performed to evaluate the ability of test item to enhance the phagocytic activity of macrophages. Monocytes were isolated from blood of healthy donors and cultured for 6-8 days using complete RPMI (Roswell Park Memorial Institute) supplemented with 20 ng/mL recombinant human M-CSF to differentiate them into macrophages. Media was changed every alternate day. Simultaneously H929 cells were cultured in complete RPMI media and treated with 10 nM bortezomib for 48 hrs. Macrophages were starved for 2 hrs in serum free RPMI.CFSE stained, Bortezomib treated/untreated H929 (multiple myeloma cell line) cells were seeded at a density of 0.2×10^6 cells/well in 96-well low attachment plate and treated with anti-human CD47 purified B6H12 (5 μg/mL)/Mouse IgG1 K Isotype Control antibody (5 μg/mL)/different concentrations of selected compounds of the present invention in serum free media for 30 min at 37° C. Serum starved macrophages were added to H929 cells at a ratio of 1:4 (macrophages:H929 cells) and incubated for 2 hours at 37° C. Cells in each well were stained with anti-human CD11b APC for 30 minutes at 4° C. in dark followed by fixation and FACS analysis. Cells positive for FITC and APC were considered as H929 cells phagocytosed by macrophages. Data acquired using FACS verse was analysed using Flow Jo software.

[2] = tested on: luciferase expressing Raji (lymphoma cell line) cells; experiment: Luciferase based phagocytosis assay (macrophages, combination with anti-human CD20 antibody); type: cell-based; details: in combination with anti-human CD20 antibody, compared with compound alone; FIG. 1
Procedure: In vitro phagocytosis assay was performed to evaluate the ability of test item to enhance the phagocytic activity of macrophages. Monocytes were isolated from blood of healthy donor and cultured for 6-8 days using 10% RPMI (Roswell Park Memorial Institute) media and recombinant human M-CSF to differentiate into macrophages. Media was changed every alternate day. After differentiation, adherent macrophages were collected by gentle scraping and cultured in 10% RPMI overnight at a density of 0.1 million per well in 48 well tissue culture plate. Simultaneously, luciferase expressing Raji (lymphoma cell line) cells were cultured in 10% RPMI media with 100 μg/mL of hygromycin B in tissue culture flask. On the day of phagocytosis, macrophages were serum starved for 2 hours. 0.4 million luciferase expressing Raji cells per well were incubated with anti-human CD47 antibody or Mouse IgG1 K Isotype Control antibody or various concentrations of selected compounds of the present invention alone or in combination with anti-human CD20 antibody in serum free media for 30 min at 37° C. and added into respective well of the 48 well plate seeded with macrophages. […] Luminescence reading was taken using plate reader after transferring the content of each well to white plate. Intensity of luminescence indicated the extent of phagocytosis. […]

[3] = tested on: A20 syngeneic lymphoma model; experiment: Efficacy study in A20 syngeneic lymphoma model; type: in vivo, Balb/c mice
Excerpt: Female Balb/c (BALB/cAnNTac) mice (6-8 weeks-old) bred in-house were used in this efficacy study in the A20 syngeneic lymphoma model. The animals were marked individually with tail marks and kept in cages that were identified by a cage card showing the study code, date of experimentation, sex and number of animals. During the experiment, the animals were weighed daily. A20 cell line (B-cell lymphoma line derived from a spontaneous reticulum cell neoplasm found in an old BALB/cAnN mouse) was procured from ATCC.
When the mean tumor volumes reached approximately 75 mm^3, the animals were randomized based on tumor volumes into four groups (G1 to G4) of twelve animals (N=12) each and dosed with vehicle, Compound 6, anti-mouse PD-L1 antibody and the combination of Compound 6 and anti-mouse PD-L1 antibody as mentioned below:
The treatment was continued for a period of 21 days, during which the overall efficacy and tolerability were evaluated based on tumor volume and body weight changes observed during the treatment period.
Individual animal body weights were recorded daily before the administration of Compound 6 throughout the experimental period. […] The tumor volumes were measured in all treatment group animals thrice a week (once every 2-3 days) using a digital Vernier callipers. From an ethical viewpoint, any treatment/control group with a mean tumor weight in excess of 10% of animal body weight were humanely sacrificed. As a measure of efficacy, the % T (treatment)/C(control) and % TGI (% Tumor growth inhibition) values were calculated. Graphs and statistical analysis were performed using GraphPad Prism®, Version 7.0. For analysis of tumor volume data, statistical comparison was done on Day 18 for all groups using One-way ANOVA with Dunnett's multiple comparison test. All analyses and comparisons was evaluated at the 5% (p<0.05) level. A “p” value less than 0.05 was considered as significant.

Row | Compound | phagocytosis of multiple myeloma cells (FACS, FITC and APC positive cells) [1] | phagocytosis of lymphoma cells (luminescence intensity) [2] | % TGI ([3]; A20 tumor bearing Balb/c mice, Compound 6 30 mg/kg bid oral, anti-mouse PD-L1 antibody 200 μg/animal i.p. Day 1, 3, 6, 9, statistics on Day 18) | tolerability (clinical signs, mortality) ([3]; Compound 6 30 mg/kg bid, single agent or in combination with PD-L1 antibody, 21 days) | tumor growth inhibition (TGI) ([3]; at the end of treatment period (21 days), Compound 6 30 mg/kg, A20 tumor bearing mice) [%]
1 | N=C(N)NCCC[C@H](NC(=O)N1CCCC1C(=O)O)c1nc([C@@H](N)CCC(=O)O)no1 (stereo partly shown) [Compound 3] | Enhanced phagocytosis | Enhanced phagocytosis |  |  | 
2 | NC(=O)CC[C@H](N)c1noc(CNC(=O)N2CCCC2C(=O)O)n1 (stereo partly shown) [Compound 6] | Enhanced phagocytosis | Enhanced phagocytosis | 72* % | well tolerated without any treatment related clinical signs and mortality | 72
